# Like-named read-outs stand apart in the source and are kept apart here.
# Tests used:
# Tetrahymena pyriformis W = assay: Antiprotozoal activity, growth inhibition by the serial dilution method; type: cell-based
# Procedure: Antiprotozoal activity of compound (I) was assayed with Tetrahymena pyriformis W as the test organism and a medium composed of 20 g tryptose-peptone (Difco Co.), 1 g yeast extract, 2 g glucose, 1000 ml distilled water, 10 ml 1 M phosphate buffer (pH 7.0) as the assay medium. The microorganism was incubated at 28° C. for 44 to 48 hours and the growth inhibitory activity of compound (I) was assayed by the serial dilution method.
# melanoma B-16 = assay: Antitumor activity, life span prolongation of mice transplanted intraperitoneally with melanoma B-16 tumor cells; type: in vivo; conditions: i.p. once daily for 9 consecutive days
# Procedure: (§1) Therapeutic tests were carried out in mice according to NCI-protocols 1,200 and 1,300, Cancer Chemother, Reports, Part 3, 1972, Vol. 3, No. 2, in which leukemia P-388 and melanoma B-16 tumor cells had been intraperitoneally transplanted, compound (I) being administered intraperitoneally once daily for 9 consecutive days.
# leukemia P-388 = assay: Antitumor activity, life span prolongation of mice transplanted intraperitoneally with leukemia P-388 tumor cells; type: in vivo; conditions: i.p. once daily for 9 consecutive days
# Procedure: as §1
# [1] = Tetrahymena pyriformis, pH 7, read-out: Antiprotozoal activity MIC (minimal inhibitory concentration)
smiles,measurement,setting,value
"COc1cc2cc(c1)N(C)C(=O)CC(OC(=O)CCl)C1(C)OC1C(C)C1CC(O)(NC(=O)O1)C(OC)C=CC=C(C)C2 (stereo not shown) [Dechloromaytansinol 3-chloroacetate, dechloromaytansinol 3-chloroacetate]",MIC,Tetrahymena pyriformis W; [1],≥ 4 µg/mL
"COc1cc2cc(c1)N(C)C(=O)CC(OC(=O)[C@H](C)N(C)C(C)=O)C1(C)OC1C(C)C1CC(O)(NC(=O)O1)C(OC)C=CC=C(C)C2 (stereo partly shown) [Dechloromaytansine, dechloromaytansine]",Antitumor activities B-16 (T/C %),melanoma B-16; 100 μg/kg,171 T/C %
same,Antitumor activities B-16 (T/C %),melanoma B-16; 200 μg/kg,152 T/C %
same,Antitumor activities B-16 (T/C %),melanoma B-16; 400 μg/kg,179 T/C %
same,Antitumor activities B-16 (T/C %),melanoma B-16; 800 μg/kg,190 T/C %
same,Antitumor activities P-388 (T/C %),leukemia P-388; 50 μg/kg,158 T/C %
same,Antitumor activities P-388 (T/C %),leukemia P-388; 100 μg/kg,165 T/C %
same,Antitumor activities P-388 (T/C %),leukemia P-388; 200 μg/kg,175 T/C %
same,Antitumor activities P-388 (T/C %),leukemia P-388; 400 μg/kg,189 T/C %
COc1cc2cc(c1)N(C)C(=O)CC(OC(=O)C1CCCCC1)C1(C)OC1C(C)C1CC(O)(NC(=O)O1)C(OC)C=CC=C(C)C2 (stereo not shown) [dechloromaytansinol 3-cyclohexanecarboxylate],MIC,Tetrahymena pyriformis W; [1],4 µg/mL
"COc1cc2cc(c1)N(C)C(=O)CC(OC(=O)Cc1ccccc1)C1(C)OC1C(C)C1CC(O)(NC(=O)O1)C(OC)C=CC=C(C)C2 (stereo not shown) [Dechloromaytansinol 3-phenylacetate, dechloromaytansinol 3-phenylacetate]",MIC,"Tetrahymena pyriformis W; Tetrahymena pyriformis W, 28° C., 44 to 48 hours, serial dilution method, pH 7.0, read-out: Antiprotozoal activity MIC (minimal inhibitory concentration)",2 µg/mL
"COc1cc2cc(c1)N(C)C(=O)CC(OC(=O)C(C)C)C1(C)OC1C(C)C1CC(O)(NC(=O)O1)C(OC)C=CC=C(C)C2 (stereo not shown) [Dechloromaytansinol 3-isobutyrate, dechloromaytansinol 3-isobutyrate]",Antitumor activities B-16 (T/C %),melanoma B-16; 100 μg/kg,150 T/C %
same,Antitumor activities B-16 (T/C %),melanoma B-16; 200 μg/kg,152 T/C %
same,Antitumor activities B-16 (T/C %),melanoma B-16; 400 μg/kg,174 T/C %
same,Antitumor activities B-16 (T/C %),melanoma B-16; 800 μg/kg,214 T/C %
same,Antitumor activities P-388 (T/C %),leukemia P-388; 50 μg/kg,168 T/C %
same,Antitumor activities P-388 (T/C %),leukemia P-388; 100 μg/kg,189 T/C %
same,Antitumor activities P-388 (T/C %),leukemia P-388; 200 μg/kg,193 T/C %
same,Antitumor activities P-388 (T/C %),leukemia P-388; 400 μg/kg,224 T/C %
